Where two headings read alike, the source gives them in different places.
How the values were obtained:
[1] = system: phosphorylation of JAK1, JAK3 and STAT3; test: Western blotting of JAK/STAT phosphorylation in A549 cells; assay type: cell-based, human
Method: For western blotting, A549 cells were seeded at a density of 0.2 × 10^6 cells/well in 6-well plates. […] Whole-cell lysates were prepared in 1× RIPA buffer (Sigma) with added sodium orthovanadate (1 mM), protease cocktail (Roche), NaF (1 mM), PMSF (1 mM) and EDTA (0.5 M). Protein estimation was done using Bradford reagent (Bio-Rad). […] Whole-cell lysates corresponding to 70-100 µg of protein were loaded. The samples were analysed by SDS-PAGE with a 10% separating gel. […] The membrane was probed with specific antibodies for pJAK-1 (1:1000), p-STAT-3 (CST) (1:1000), total JAK-1 (1:1000), pJAK-3 Z(1:1000), T-JAK-3 (1:1000), total STAT-3(1:1000), GAPDH (1:500), and visualized using ECL (Millipore). GAPDH was used as a loading control. […] Following this starvation period, the A549 cells were pre-treated with varying concentrations of MJ04 for a duration of 4 h. Following the pre-treatment, the cells were stimulated with 10 ng/mL of IL-6 for 30 min [20–22].

JAK1 = biological target: T1, JAK1 (Homo sapiens, UniProt P23458); test: Cell-free kinase assay JAK1; assay type: biochemical
T1 construct: purchased Promega Corporation VA7207
Method: (§1) The cell-free kinase assays of small molecules were determined by following the manufacturer-recommended protocols. Different concentrations in triplicate were used to determine the IC50 value of the hit molecules (active molecules). For data analysis, GraphPad Prism V9.5 Software and a sigmoidal dose–response (variable slope) equation were used. Each value represents an average of three replicates per concentration.

Mia PaCa-2 = test: MTT cell viability assay Mia PaCa-2; assay type: cell-based, human; conditions: Homo sapiens, MIA PaCa-2, 48 h
Method: (§2) Cell viability was evaluated using an MTT colorimetric assay. Cells were seeded (10^5 cells/mL) in 96-well plates and allowed to grow overnight at 37 ℃ with 5% CO2 in a cell-culture incubator. On the following day, the cells were treated with small molecules at different concentrations (0.2–10 micro-molar) or vehicle (DMSO). Cells were then further incubated for 48 h.

[2] = Stability of the formulation used for in vivo studies (HPLC); assay type: physicochemical; conditions: ethanol / ethanol:PEG-300, room temperature, 0-48 h
Method: The stability study of the lead compound (MJ04) was performed using HPLC analysis wherein the samples were studied after different time intervals. The 0.6 mg of MJ04 was taken and dissolved in 1 mL of ethanol to achieve 0.6 mg/mL concentration. Out of this, 500 µL was further diluted to 0.3 mg/mL by adding 500 µL ethanol to it (Ethanol sample). To remaining 500 µL, we added 500 µL PEG-300 to achieve final concentration of 0.3 mg /mL (Ethanol:PEG sample). HPLC of these samples was performed at various time points (0 h, 12 h, 24 h and 48 h) upon incubating at room temperature. The HPLC of samples was performed by RP-18 end capped; […], 4.6 × 250 mm. The mobile phase containing water (30%) and acetonitrile (70%) was used at the flow rate of 1 mL/min at a column temperature of 27 °C at 210 nm wavelength. A volume of 5 µL of sample was injected and the total run time of the assay was 30 min using the isocratic technique in the HPLC system.

HEK-293 = test: MTT cell viability assay HEK-293; assay type: cell-based, human
Method: as §2

[3] = system: Murine macrophages (J774a.1); test: Cytokines from LPS primed macrophages (ELISA); assay type: cell-based; conditions: dose-dependent
Method: The supernatant was collected and stored at −20 ℃ for further cytokines analysis. The level of cytokines (TNF-α, IL1-β, and IL-6) was analyzed by sandwich ELISA as per the manufacturer protocol (BD Biosciences). In brief, capture antibodies were coated in the 96-well ELISA plate (Nunc) in respective coating buffer at 4 ℃ overnight. The plate was washed 4 times with washing buffer and blocked with the recommended blocking buffer for 1 h at room temperature. After incubation, plates were washed 4 times, added with sample and standard, and further incubated for another 2 h. Plates were then washed 4 times, added with detection antibody in combination of HRP for 1 h, and finally again washed 5 times. HRP substrate (TMB) was added and allowed to develop observable colour, and the reaction was stopped by adding 2 N H2SO4, and absorbance was recorded at 450 nm with 570 nm correction.

JAK2 = biological target: T2, JAK2 (Homo sapiens, UniProt O60674); test: Cell-free kinase assay JAK2; assay type: biochemical; conditions: for IC50: read-out: IC50 JAK 2
T2 construct: purchased BPS Bioscience 79,520
Method: as §1

PI-3-K γ = biological target: T3, PI-3-K γ (Homo sapiens, UniProt P48736); test: Cell-free kinase assay PI-3-K γ; assay type: biochemical
T3 construct: purchased Promega Corporation V1690
Method: as §1

[4] = rat, in vivo
[5] = A549 cells, increasing concentrations

T1 sequence (P23458 whole entry): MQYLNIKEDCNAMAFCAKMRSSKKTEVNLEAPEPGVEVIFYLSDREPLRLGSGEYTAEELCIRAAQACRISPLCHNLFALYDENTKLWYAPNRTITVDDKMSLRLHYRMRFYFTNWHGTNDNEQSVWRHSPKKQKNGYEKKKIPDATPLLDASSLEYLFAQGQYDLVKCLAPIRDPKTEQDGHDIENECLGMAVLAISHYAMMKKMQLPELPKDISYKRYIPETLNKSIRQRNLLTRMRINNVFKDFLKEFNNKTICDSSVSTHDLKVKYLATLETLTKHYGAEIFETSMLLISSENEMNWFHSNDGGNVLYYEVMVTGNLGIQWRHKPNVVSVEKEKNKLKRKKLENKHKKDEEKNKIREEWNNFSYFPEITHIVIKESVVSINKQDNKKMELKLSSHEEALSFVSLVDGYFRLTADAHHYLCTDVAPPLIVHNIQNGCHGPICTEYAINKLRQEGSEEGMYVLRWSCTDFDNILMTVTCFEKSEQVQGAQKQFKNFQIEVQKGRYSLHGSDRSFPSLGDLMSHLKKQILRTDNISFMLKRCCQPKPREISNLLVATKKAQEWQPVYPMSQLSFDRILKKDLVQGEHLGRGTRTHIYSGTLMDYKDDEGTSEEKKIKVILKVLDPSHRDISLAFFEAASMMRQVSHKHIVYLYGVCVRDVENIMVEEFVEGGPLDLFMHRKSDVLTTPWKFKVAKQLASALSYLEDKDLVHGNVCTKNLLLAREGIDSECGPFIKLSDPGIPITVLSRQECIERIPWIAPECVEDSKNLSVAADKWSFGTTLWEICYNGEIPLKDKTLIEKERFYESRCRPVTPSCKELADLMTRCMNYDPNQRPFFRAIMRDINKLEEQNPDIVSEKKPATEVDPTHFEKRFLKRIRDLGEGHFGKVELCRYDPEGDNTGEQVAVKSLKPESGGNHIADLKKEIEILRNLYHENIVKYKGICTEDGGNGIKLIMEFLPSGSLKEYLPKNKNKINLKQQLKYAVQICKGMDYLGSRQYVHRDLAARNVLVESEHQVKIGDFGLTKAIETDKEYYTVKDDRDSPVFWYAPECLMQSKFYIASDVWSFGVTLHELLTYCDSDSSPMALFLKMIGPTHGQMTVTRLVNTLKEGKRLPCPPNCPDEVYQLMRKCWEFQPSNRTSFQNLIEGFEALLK
T2 sequence (O60674 whole entry): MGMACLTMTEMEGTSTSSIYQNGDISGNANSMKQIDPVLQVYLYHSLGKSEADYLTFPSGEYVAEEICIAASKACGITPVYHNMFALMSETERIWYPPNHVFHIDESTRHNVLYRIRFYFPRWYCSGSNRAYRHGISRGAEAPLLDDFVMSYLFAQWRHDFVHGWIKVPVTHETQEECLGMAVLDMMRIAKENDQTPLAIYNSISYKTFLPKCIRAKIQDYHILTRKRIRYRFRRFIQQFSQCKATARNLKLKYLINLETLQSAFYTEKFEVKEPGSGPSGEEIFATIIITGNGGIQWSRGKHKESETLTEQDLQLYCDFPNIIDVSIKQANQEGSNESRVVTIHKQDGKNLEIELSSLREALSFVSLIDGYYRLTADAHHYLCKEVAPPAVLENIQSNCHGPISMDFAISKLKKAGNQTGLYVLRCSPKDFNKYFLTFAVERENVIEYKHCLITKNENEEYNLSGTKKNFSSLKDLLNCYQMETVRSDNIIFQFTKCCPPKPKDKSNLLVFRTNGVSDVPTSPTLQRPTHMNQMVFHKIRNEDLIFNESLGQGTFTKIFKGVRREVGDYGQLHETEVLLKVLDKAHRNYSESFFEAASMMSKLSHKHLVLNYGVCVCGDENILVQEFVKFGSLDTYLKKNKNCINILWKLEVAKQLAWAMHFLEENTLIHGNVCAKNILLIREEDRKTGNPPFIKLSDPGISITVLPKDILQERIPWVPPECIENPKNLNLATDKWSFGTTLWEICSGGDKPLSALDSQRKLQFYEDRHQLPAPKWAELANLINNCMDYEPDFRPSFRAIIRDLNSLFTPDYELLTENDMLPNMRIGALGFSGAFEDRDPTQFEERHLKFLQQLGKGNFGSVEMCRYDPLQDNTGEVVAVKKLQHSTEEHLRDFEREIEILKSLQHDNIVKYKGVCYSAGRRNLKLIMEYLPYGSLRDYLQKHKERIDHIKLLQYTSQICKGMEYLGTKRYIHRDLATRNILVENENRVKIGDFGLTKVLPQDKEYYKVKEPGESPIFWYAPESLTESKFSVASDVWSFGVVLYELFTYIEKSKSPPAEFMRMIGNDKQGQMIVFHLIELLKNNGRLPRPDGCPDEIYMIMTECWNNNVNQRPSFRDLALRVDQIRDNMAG
T3 sequence (P48736 whole entry): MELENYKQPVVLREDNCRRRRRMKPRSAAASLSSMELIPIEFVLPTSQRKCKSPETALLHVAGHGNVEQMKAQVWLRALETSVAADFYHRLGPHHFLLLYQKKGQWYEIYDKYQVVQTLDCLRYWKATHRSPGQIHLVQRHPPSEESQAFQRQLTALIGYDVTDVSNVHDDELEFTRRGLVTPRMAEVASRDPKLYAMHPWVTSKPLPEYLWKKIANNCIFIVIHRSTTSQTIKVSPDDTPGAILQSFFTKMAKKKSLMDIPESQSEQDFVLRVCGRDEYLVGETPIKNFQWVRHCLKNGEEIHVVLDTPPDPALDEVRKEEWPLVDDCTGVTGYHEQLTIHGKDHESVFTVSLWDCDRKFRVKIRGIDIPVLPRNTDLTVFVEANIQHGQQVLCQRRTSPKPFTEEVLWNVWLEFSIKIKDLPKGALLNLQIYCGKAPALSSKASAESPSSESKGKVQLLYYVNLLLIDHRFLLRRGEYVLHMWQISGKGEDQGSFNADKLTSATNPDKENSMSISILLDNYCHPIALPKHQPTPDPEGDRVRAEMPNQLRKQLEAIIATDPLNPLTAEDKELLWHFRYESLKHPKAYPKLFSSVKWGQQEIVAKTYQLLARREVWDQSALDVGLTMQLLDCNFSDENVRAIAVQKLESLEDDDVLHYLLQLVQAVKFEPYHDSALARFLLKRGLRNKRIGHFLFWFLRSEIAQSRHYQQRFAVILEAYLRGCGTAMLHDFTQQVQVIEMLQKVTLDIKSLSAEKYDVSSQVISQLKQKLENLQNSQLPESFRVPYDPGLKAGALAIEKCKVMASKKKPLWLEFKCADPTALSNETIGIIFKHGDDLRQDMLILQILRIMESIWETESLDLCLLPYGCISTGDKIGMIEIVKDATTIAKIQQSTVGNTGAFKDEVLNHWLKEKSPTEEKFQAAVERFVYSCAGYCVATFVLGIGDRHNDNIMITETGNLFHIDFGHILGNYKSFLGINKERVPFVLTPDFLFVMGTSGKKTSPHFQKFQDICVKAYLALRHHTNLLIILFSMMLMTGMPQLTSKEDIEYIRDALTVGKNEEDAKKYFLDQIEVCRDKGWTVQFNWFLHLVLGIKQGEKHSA

In the case of `Fc1ccc(-c2cnc3[nH]cc(-c4ccnc(NC5CC5)n4)c3c2)cc1` [MJ04], the STAT3 phosphorylation ([1]; A549 cells stimulated with IL-6) is reported as “significant decrease”, the “phosphorylation of STAT3 (Tyr705)” value ([1]; A549 cells, dose-dependent) is reported as “significant decrease” and the “phosphorylation of JAK1” value [1, 5] is reported as “significant reduction”. The “phosphorylation of JAK3” value [1, 5] was “significant reduction”, the IC50 (JAK1; 1mM ATP) was > 10000 nM and the “Fold of selectivity vs. JAK3” value (JAK1; JAK1) was 95. For the same compound, the IC50 (JAK1; Km ATP) was 193 nM, the IC50 (Mia PaCa-2) was 2270 nM and the “stability in the formulation used for animal experiments” value [2] was “stable”. For the same compound, the “safety ratio (IC50 against HEK293 normal cell line versus IC50 in A549 cancer cell line)” value (HEK-293) was ~26, the IC50 (HEK-293; Homo sapiens, HEK293, read-out: IC50 HEK-293, MTT, 48 h, normal cell line) was > 100000 nM and the “level of proinflammatory cytokines TNF-α, IL1-β and IL-6” value [3] was “dampens the level of proinflammatory cytokines”. The IC50 (JAK2; 1mM ATP) was > 10000 nM, the “Fold of selectivity vs. JAK3” value (JAK2; JAK 2) was 126 and the IC50 (JAK2; Km ATP) was 256 nM. For the same compound, the IC50 (PI-3-K γ; Km ATP) was 3670 nM, the “Fold of selectivity vs. JAK3” value (PI-3-K γ; PI-3-K γ) was 1806 and the “Globally Harmonized Classification System (GHS) category” value ([4]; Wistar, 14 days) was “Category-5”. It also gave an ALB ([4]; 2000 mg/kg) of 4.37 ± 2.09 g/dL, an ALP ([4]; 2000 mg/kg) of 380.33 ± 161.30 U/L and an ALT ([4]; 2000 mg/kg) of 77.33 ± 3.93 U/L. The AST ([4]; 2000 mg/kg) was 183.63 ± 16.64 U/L, the BUN ([4]; 2000 mg/kg) was 13.99 ± 2.92 mg/dL and the CR ([4]; 2000 mg/kg) was 0.71 ± 0.18 mg/dL. For the same compound, the Ca ([4]; 2000 mg/kg) was 11.90 ± 0.36 mg/dL, the GLB ([4]; 2000 mg/kg) was 3.21 ± 0.09 and the Glucose ([4]; 2000 mg/kg) was 91.13 ± 17.80 mg/dL. The Na ([4]; 2000 mg/kg) was 145.57 ± 1.71 mM, the P ([4]; 2000 mg/kg) was 4.84 ± 1.10 mg/dL and the TB ([4]; 2000 mg/kg) was 0.11 ± 0.03 mg/dL. It also gave a TG ([4]; 2000 mg/kg) of 75.33 ± 8.33 mg/dL, a TP ([4]; 2000 mg/kg) of 7.05 ± 0.25 g/dL and a Urea ([4]; 2000 mg/kg) of 36.57 ± 8.43 mg/dL.
